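Test compounds were applied to cells in 96-well plates for 48 hours at 5 doses. GI50 marks 50% less growth.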 Active and inactive are the calls of the source. No stated cut-off is given here; in the data, active = GI50 up to about 1.1 µM and inactive = higher. Non-standard residues stand in square brackets, D forms with d. Residues, ends and D or L forms follow the SMILES beside them. ξ: configuration not given here. *: point of attachment. NMeY = CN[C@@H](Cc1ccc(O)cc1)C(=O)O; Cbz = O=C(OCc1ccccc1)*; ξA = CC(N)C(=O)O

Test systems include CAKI-1; CCRF-CEM; HCT-116; HOP-62; HT-29; K562; Malme-3M; NCI-H460; NCI-H522; OVCAR-3; SF-295; SK-MEL-28; SK-MEL-2; SK-OV-3; SN12C; SNB-75; SR; SW-620; U-251; UACC-62.
Holding throughout (assay): NCI-60 cell line screen, 48 h

Take `COc1ccc(C[C@@H](C(=O)NCC(N)=O)N(C)C(=O)[C@@H]2CCCN2C(=O)[C@H](CC(C)C)NC(=O)C(C)NC(=O)OCc2ccccc2)cc1` (stereo not given in full) (Cbz-[ξA]LP[NMeY](Me)G-NH2): the GI50 with CAKI-1, with CCRF-CEM, in the experiment with HCT-116, in the experiment with HOP-62, with HT-29 and with K562 was > 100 µM (inactive) in each case. Besides, the GI50 in the experiment on Malme-3M, with NCI-H460, with NCI-H522, with OVCAR-3, with SF-295 and with SK-MEL-28 was > 100 µM (inactive) each time. In addition, the GI50 with SK-MEL-2, in the experiment with SK-OV-3, in the experiment on SN12C, in the experiment on SNB-75, in the experiment on SR and in the experiment with SW-620 was > 100 µM (inactive) each time. The GI50 with U-251 and in the experiment on UACC-62 was > 100 µM (inactive) in each case.

For the compound `O=c1ssc2c1Nc1c(ssc1=O)S2`, the GI50 was 17.9 µM (inactive) in the experiment on CAKI-1; 2.05 µM (inactive) in the experiment on CCRF-CEM; 15.4 µM (inactive) in the experiment with HCT-116; 18.5 µM (inactive) with HOP-62; 24.3 µM (inactive) in the experiment on HT-29; 8 µM (inactive) with K562. Further, the GI50 with Malme-3M was 5.9 µM (inactive); with NCI-H460, 17.3 µM (inactive); in the experiment on NCI-H522, 8.28 µM (inactive); in the experiment with OVCAR-3 it was 17.4 µM (inactive); with SF-295 it was 27.7 µM (inactive); in the experiment on SK-MEL-28, 18.5 µM (inactive). In addition, the GI50 with SK-MEL-2 was 16.1 µM (inactive); in the experiment with SK-OV-3 it was 19.5 µM (inactive); with SN12C it was 14.4 µM (inactive); in the experiment with SNB-75, 16.5 µM (inactive); in the experiment with SR, 1.96 µM (inactive); with SW-620 it was 8.61 µM (inactive). The GI50 with U-251 was 16.4 µM (inactive); with UACC-62 it was 14 µM (inactive).

For the compound `CC(C)(C)OC(=O)N1CC(CCl)c2ccc(O)cc21` (stereo not given), the GI50 in the experiment on CAKI-1 was 2.97 µM (inactive); with CCRF-CEM, 1.29 µM (inactive); in the experiment with HCT-116, 2.64 µM (inactive); in the experiment on HOP-62, 3.29 µM (inactive); with HT-29, 3.15 µM (inactive); in the experiment on K562, 2.87 µM (inactive). Moreover, the GI50 in the experiment with Malme-3M was 1.64 µM (inactive); with NCI-H460 it was 2.67 µM (inactive); in the experiment with NCI-H522 it was 0.612 µM (active); in the experiment on OVCAR-3, 2.51 µM (inactive); with SF-295, 3.65 µM (inactive); with SK-MEL-28, 2.09 µM (inactive). Also, the GI50 was 1.7 µM (inactive) with SK-MEL-2; 5.05 µM (inactive) in the experiment with SK-OV-3; 3.23 µM (inactive) in the experiment on SN12C; 1.39 µM (inactive) in the experiment on SNB-75; 1.45 µM (inactive) with SR; 2.59 µM (inactive) in the experiment on SW-620. Further, the GI50 with U-251 was 3.15 µM (inactive); in the experiment with UACC-62, 2.01 µM (inactive).

Regarding `COCOC1/C=C/CCCCC(=O)C(C)C#CC1` (stereo not given), the GI50 in the experiment on CAKI-1 is 5.09 µM (inactive); in the experiment with CCRF-CEM it was 1.87 µM (inactive); in the experiment on HCT-116, 1.86 µM (inactive); in the experiment with HOP-62, 17.5 µM (inactive); in the experiment with HT-29 it was 3.37 µM (inactive); in the experiment on K562, 2.97 µM (inactive). Moreover, the GI50 with Malme-3M is 1.98 µM (inactive); in the experiment with NCI-H460, 7.13 µM (inactive); in the experiment with NCI-H522, 1.53 µM (inactive); in the experiment with OVCAR-3, 4.13 µM (inactive); in the experiment with SF-295, 16.6 µM (inactive); in the experiment with SK-MEL-28 it was 12.4 µM (inactive). Further, the GI50 in the experiment on SK-MEL-2 was 5.81 µM (inactive); in the experiment on SK-OV-3, 15.8 µM (inactive); in the experiment on SN12C, 6.27 µM (inactive); with SNB-75 it was 12.9 µM (inactive); in the experiment with SR, 2.74 µM (inactive); with SW-620, 1.89 µM (inactive). For the same compound, the GI50 with U-251 is 14.4 µM (inactive); in the experiment with UACC-62 it was 2.4 µM (inactive).

For the compound `CC(=O)C(=Cc1ccc(C=C(C(C)=O)C(C)=O)cc1)C(C)=O`, the GI50 is 1.74 µM (inactive) with CAKI-1; 0.193 µM (active) in the experiment on CCRF-CEM; 0.637 µM (active) in the experiment on HCT-116; 2.08 µM (inactive) in the experiment on HOP-62; 1.2 µM (inactive) with HT-29; 0.286 µM (active) in the experiment on K562. Moreover, the GI50 was 2.01 µM (inactive) in the experiment on Malme-3M; 2.59 µM (inactive) in the experiment on NCI-H460; 1.37 µM (inactive) in the experiment with NCI-H522; 2.01 µM (inactive) in the experiment on OVCAR-3; 2.11 µM (inactive) in the experiment on SF-295; 1.71 µM (inactive) with SK-MEL-28. For the same compound, the GI50 in the experiment on SK-MEL-2 is 2.39 µM (inactive); with SK-OV-3, 6.07 µM (inactive); in the experiment with SN12C, 1.63 µM (inactive); in the experiment on SNB-75 it was 1.78 µM (inactive); in the experiment with SR, 0.238 µM (active); in the experiment with SW-620, 0.611 µM (active). Besides, the GI50 was 1.79 µM (inactive) in the experiment on U-251 and 1.65 µM (inactive) with UACC-62.

For `CSc1c(C)[n+]([O-])c2cc(Cl)c(Cl)cc2[n+]1[O-]`, the GI50 in the experiment on CAKI-1 is 18.2 µM (inactive); with CCRF-CEM, 2.32 µM (inactive); in the experiment on HCT-116, 16.4 µM (inactive); with HOP-62 it was 33.3 µM (inactive); with HT-29, 18.1 µM (inactive); with K562, 3.32 µM (inactive). Besides, the GI50 with Malme-3M is 16.9 µM (inactive); in the experiment on NCI-H460 it was 37.9 µM (inactive); in the experiment on NCI-H522, 12.2 µM (inactive); in the experiment with OVCAR-3 it was 11.5 µM (inactive); with SF-295, > 56.8 µM (inactive); with SK-MEL-28, 19 µM (inactive). In addition, the GI50 in the experiment with SK-MEL-2 was 19.9 µM (inactive); in the experiment with SK-OV-3 it was > 100 µM (inactive); in the experiment with SN12C, 16.4 µM (inactive); in the experiment with SNB-75, > 47.1 µM (inactive); in the experiment with SR, 3.13 µM (inactive); in the experiment with SW-620 it was 16.8 µM (inactive). In addition, the GI50 in the experiment on U-251 was 21.9 µM (inactive); in the experiment with UACC-62, 14.9 µM (inactive).

Regarding `CC(C)(C)N/N=C(\C(=O)Nc1nnc(S)[nH]1)C1C(=O)Nc2ccccc2[S+]1[O-]` (stereo not given), the GI50 in the experiment with CAKI-1, in the experiment on CCRF-CEM, in the experiment with HCT-116, with HOP-62, in the experiment with HT-29 and in the experiment with K562 was > 100 µM (inactive) each time. For the same compound, the GI50 in the experiment with Malme-3M, in the experiment on NCI-H460, in the experiment with NCI-H522, in the experiment with OVCAR-3, with SF-295 and in the experiment on SK-MEL-28 was > 100 µM (inactive) throughout. Besides, the GI50 with SK-MEL-2, in the experiment with SK-OV-3, in the experiment with SN12C, in the experiment with SNB-75, in the experiment with SR and in the experiment on SW-620 was > 100 µM (inactive) in each case. The GI50 with U-251 and in the experiment with UACC-62 was > 100 µM (inactive) in each case.
